Experimental data: patent US6947790B2, “Neurocognitive function EEG measurement method and system” (priority 2000, dated 2005)
Where two headings read alike, the source gives them in different places.

Experiments:
children with ADHD [1] = assay: Experiment 9: spatial WM task performance; assay type: in vivo, human; conditions: medicated vs unmedicated state; Dexedrine 20 mg, methylphenidate 10 mg
Source text: Experiment. Participants (a total of N=14, evenly divided between boys and girls) were referred to this study by local ADHD specialists. All participants had been diagnosed with the combined subtype of ADHD and were currently undergoing treatment with stimulant medication. Inclusion criteria include age 8-12 years, no mental retardation or neurological impairment, and full-scale IQ in the normal range as measured by the WISC-III (Wechsler, 1991). Participants were paid $10/hour for their participation, and were reimbursed for transportation costs. To increase motivation, the children were also rewarded with toys for good performance.
(§1) EEG and behavioral data were collected while the children performed low load and high load versions of the spatial WM task described above. […] Participants were tested on each of three occasions at the same time of day with a week between sessions. The first occasion was an orientation and training session in which subjects learned and practiced the tasks until performance reached asymptote. On the other occasions they were tested either while medicated or while abstaining from their normal dose of medication, with order of treatment counterbalanced across subjects. […]

children with ADHD [2] = assay: Experiment 9: EEG and ERP; assay type: in vivo, human
Method: as §1, with “subjects. A scientist not otherwise involved with the study maintained the schedule of medication and no-medication days so that the research assistant performing the testing and preliminary analyses was blind to medication status. Data from the orientation day was not included in formal analyses. On the other days subjects first performed a single 23-trial block of each of the task conditions as a warm-up procedure. They then performed 4 more 23-trial blocks of each test version in randomized order.” for “subjects.”
In each session, multi-channel EEG was recorded from multiple “10-10 System” scalp locations (bandpass 0.1-100 Hz, 256 Hz sampling rate, linked mastoid reference) using a custom-made electrode cap. EOG was recorded from above and below the left eye, and from outer canthus of each eye. […]

healthy adults [3] = assay: Experiment 1: n-back working memory task performance; assay type: in vivo, human; conditions: for Accuracy in working memory task vs placebo / Reaction time in working memory task vs placebo: low load and high load tasks
Source text: Subjects performed two difficulty levels of a continuous performance, n-back working memory task, versions of which we have employed in many other EEG studies. In this task, subjects were required to compare the spatial location of the current stimulus with that of one presented previously. Briefly, single capital letter stimuli, drawn randomly from a set of twelve, were presented for 200 msec once every 4.5 sec on a computer monitor. At 1.3 sec prior to stimulus onset, a warning cue (a small “x”) appeared in the center of the screen for 200 msec. The letter stimulus occurred 1.3 sec after the cue in one of twelve possible locations on the monitor. The identity of the letter and its spatial position varied randomly from trial to trial. A small fixation dot was continuously present at the center of the screen. In a low load version of the task, subjects were required to match the position of the current stimulus with the position of the very first stimulus presented in the block. In a high load version of the task, subjects compared the current stimulus with that presented two trials previously. In this version subjects were required to remember two positions (and their sequential order) for the duration of two trials (nine seconds), and to update that information on each subsequent trial. In both versions of the task, stimuli were presented in blocks of 53 trials (the first three trials were warm-up trials and were discarded from analysis). Matches occurred randomly on 50% of the trials. Subjects were instructed to respond as quickly and as accurately as possible.
(§2) Each subject participated in […] sessions. The first session was a practice session in which subjects learned to perform the working memory tasks. After training, all subjects participated in 4 sessions, separated by at least one week. […] The four drug sessions were conducted according to a double blind, placebo-controlled, randomized, counterbalanced, crossover design. In each session, subjects consumed two pills (unmarked gelatin capsules) and a mixed drink. […] The pills were given with a 500 cc drink containing either 0.88 g/kg 95% ethanol mixed in fruit juice (adequate to produce an average peak blood alcohol content (BAC) of 0.08), or containing 495 cc of fruit juice with 5 cc of alcohol floated on top to mimic the smell and taste of the treatment drink.
(§3) Each drug session involved a baseline recording before drug administration. This was followed by four post-drug recording intervals, each lasting approximately 40 minutes. The first interval began 0.5 hrs after drug ingestion; the remaining three intervals occurred hourly thereafter. A scientist not otherwise involved in the experiment administered a Breathalyzer test at the beginning of each interval. Subjects also completed the Karolinska and Stanford sleepiness scales at each test period.
(§4) EEG was continuously recorded from 28 scalp electrodes using a digitally linked-mastoids reference. EOG was recorded from electrodes placed above and below one eye, and at the other canthi of each eye. Physiological signals were band-pass filtered at 0.01 to 100 Hz and sampled at 256 Hz. Automated artifact detection was followed by application of adaptive eye contaminant removal filters. The data were then visually inspected and data segments containing possible residual artifacts were eliminated from subsequent analyses. To examine the effects of the pharmacological interventions on individual EEG or behavioral variables, univariate repeated measures analyses of variance (ANOVAs) were used to compare data from each of the three treatment conditions with the placebo condition.

healthy adults [4] = conditions: for Delta band power during resting conditions vs placebo / Theta band power during resting conditions vs placebo: both resting conditions; for Parietal alpha during task performance vs placebo: both task conditions
Method: as §3, §4
For neurophysiological features, average power was extracted from individual spectral bands at individual electrode sites, and then compared across test conditions. Decisions as to which parameters to extract from the spectra were based on the results of prior studies. For the task related EEG, past studies indicate that the frontal midline theta rhythm and the parietal alpha rhythm are sensitive to variations in the attentional demands of tasks, and, in particular, to the increase in difficulty in the working memory tasks employed here. For the EEG recorded under passive resting conditions, past studies indicate that activity in the delta and theta bands at posterior sites, and the alpha rhythm measured over the occipital region, are highly sensitive to variations in alertness and arousal. Each of the individual features was compared between placebo and each drug condition in univariate ANOVAs with repeated measures.

healthy elderly subjects [5] = assay: Experiment 8: resting and task-related EEG and ERP in elderly; assay type: in vivo, human
healthy elderly subjects [6] = assay: Experiment 8: WM and ITM task performance in elderly; assay type: in vivo, human
healthy elderly subjects [7] = assay: Experiment 8: subjective sleepiness in elderly (Karolinska sleepiness scale)
healthy adults [8] = assay: Experiment 1: subjective sleepiness ratings (Karolinska Sleepiness Scale); assay type: in vivo, human; conditions: 50 mg diphenhydramine, 200-mg caffeine or 0.88 g/kg ethanol, four post-treatment intervals
Method: as §2, §3

[9] = average
Method: as §2, §3

healthy adults [10] = assay: Experiment 2: Neurocognitive Function Change (NCFC) index; assay type: in vivo, human; conditions: for NCFC index change from pre-medication baseline: 16 subjects, t1-t4
Source text: In this hybrid approach, multiple if-then rules gleaned from expert knowledge are applied to data to produce many low-level decisions about the direction of a change between two states. These local decisions are made with respect to single data parameters and the output of these rule-based functions serve as the inputs to a combinatorial network that in turn produces a single summary index of the direction and magnitude of change of neurocognitive function from a baseline state to a test state. As with a knowledgeable human expert assessing an ambiguous problem, decisions about the direction and severity of a change are based on consideration of a variety of pieces of diagnostic evidence, no one of which is central to the overall decision.
The output from the algorithm is the composite of three sub indices. The Behavioral Performance sub index incorporates measures of psychomotor speed and accuracy during task performance. The Neurophysiological Cognitive sub index incorporates attention-related EEG variables recorded during task performance (e.g. parameters of attention-related ERP components such as P300 and spectral measures of task load-related EEG modulation). The Neurophysiological Alertness sub index incorporates alertness-related physiological variables (e.g. measures of low frequency EEG activity and slow, rolling eye movement activity) recorded during passive resting conditions. The composite Neurocognitive Function Change (NCFC) index provides a summary score indicating direction and degree of change in neurocognitive status from a baseline state. In FIG. 6, each time point reflects change from the pre-medication baseline at t0 . […] In addition to the summary NCFC score presented in FIG. 6, consideration of the output of the sub indices can also provide specific information concerning the manner in which neurocognitive function has changed from baseline. […]

Compound	Working memory task performance in an individual subject (children with ADHD [1])	Accuracy in working memory task vs placebo (healthy adults [3])	Reaction time in working memory task vs placebo (healthy adults [3])	Frontal midline theta rhythm during task performance vs placebo (healthy adults [4])	Delta band power during resting conditions vs placebo (healthy adults [4])	Theta band power during resting conditions vs placebo (healthy adults [4])	Subjective sleepiness relative to placebo (healthy adults [8])	Direction of significant (p < .05) change in spectral power (vs. placebo): Oz alpha (healthy adults [4]; Resting EEG Eyes Closed)	Direction of significant (p < .05) change in spectral power (vs. placebo): Pz delta (healthy adults [4]; Resting EEG Eyes Closed)	Direction of significant (p < .05) change in spectral power (vs. placebo): Pz theta (healthy adults [4]; Resting EEG Eyes Closed)	Direction of significant (p < .05) change in spectral power (vs. placebo): Oz alpha (healthy adults [4]; Resting EEG Eyes Open)	Direction of significant (p < .05) change in spectral power (vs. placebo): Pz delta (healthy adults [4]; Resting EEG Eyes Open)	Direction of significant (p < .05) change in spectral power (vs. placebo): Pz theta (healthy adults [4]; Resting EEG Eyes Open)	Direction of significant (p < .05) change in spectral power (vs. placebo): Pz alpha (healthy adults [4]; Task EEG High Load)	Direction of significant (p < .05) change in spectral power (vs. placebo): aFz theta (healthy adults [4]; Task EEG High Load)	Direction of significant (p < .05) change in spectral power (vs. placebo): Pz alpha (healthy adults [4]; Task EEG Low Load)	Direction of significant (p < .05) change in spectral power (vs. placebo): aFz theta (healthy adults [4]; Task EEG Low Load)	Parietal alpha during task performance vs placebo (healthy adults [4])	NCFC index change from pre-medication baseline (healthy adults [10])	further results
COC(=O)C(c1ccccc1)C1CCCCN1 (stereo not drawn) [methylphenidate]	markedly better in the medicated state	–	–	–	–	–	–	–	–	–	–	–	–	–	–	–	–	–	–	P300 amplitude in an individual subject (children with ADHD [2]; methylphenidate 10 mg): larger in the medicated condition
CN(C)CCOC(c1ccccc1)c1ccccc1 [diphenhydramine]	–	less accurately	significantly more slowly	reduction in power for the frontal midline theta rhythm in the high load task only	increase in power in the delta	trend towards increasing	–	–	–	–	–	–	–	–	–	–	–	–	–	Time of nadir of task performance (healthy adults [3]; post drug, third post-ingestion interval): 2.5 to 3 h; Alpha band power, eyes-closed resting condition vs placebo (healthy adults [4]): attenuation of power in the alpha band in the eyes-closed resting condition; Alpha band power, eyes-open resting condition vs placebo (healthy adults [4]): no significant change in power during the eyes-open resting condition; Slow eye movement activity during resting conditions (healthy adults [4]; discussion): increase in the incidence of slow eye movement activity; Amplitude of posterior P200 in ITM task (healthy elderly subjects [5]): larger after diphenhydramine ingestion than after placebo ingestion; N160 and P350 ERP in WM task (healthy elderly subjects [5]; low and high load tasks): significantly smaller following diphenhydramine ingestion than placebo; Resting EEG delta and theta power (healthy elderly subjects [5]; posterior regions): increase in power in the delta and theta bands over posterior regions; ITM task RT and word recognition accuracy (healthy elderly subjects [6]): did not show significant effects of diphenhydramine; WM task performance (healthy elderly subjects [6]): did not significantly affect task performance; Time of greatest subjective sleepiness (healthy elderly subjects [7]; after ingestion): 2.5 h; Subjective sleepiness vs placebo (healthy elderly subjects [7]; elderly, 50 mg): significantly sleepier
CCO [alcohol, ethanol]	–	no significant main effects	slightly faster in the high load task, and slightly slower in the low load task	increased in the amplitude	increased the power	increased the power	significant increase in subjective sleepiness relative to placebo at the 1.5-2 hr, 2.5-3 hr and 3.5-4 hr post-treatment intervals	▬	▴	▴	▬	▴	▴	▴	▴	▴	▴	increased in the amplitude	similar, though less extreme, pattern of impairment	peak BAC ([9]; first post-treatment interval): 0.08; BAC ([9]; last post-treatment interval): 0.03; NCFC sub index most affected (healthy adults [10]; in vivo): relative greater effect on the Neurophysiological Attention sub index
C[C@H](N)Cc1ccccc1 [Dexedrine]	markedly better in the medicated state	–	–	–	–	–	–	–	–	–	–	–	–	–	–	–	–	–	–	Alpha rhythm, high load vs low load, in an individual subject (children with ADHD [2]; Dexedrine 20 mg): larger difficulty-related differences
Cn1c(=O)c2c(ncn2C)n(C)c1=O [caffeine]	–	No significant behavioral differences	No significant behavioral differences	–	–	–	did not produce subjective sleepiness ratings significantly different from placebo	▬	▬	▬	▬	▬	▬	▾	▬	▾	▬	significant reduction in alpha band power at parietal sites	little change from baseline	Resting EEG data relative to placebo (healthy adults [4]): did not produce significant differences in resting EEG data relative to placebo
